Results reported in patent US20240277732A1, “COMPOSITIONS AND METHODS FOR TREATING BRAIN-GUT DISORDERS” (Enterin, Inc., priority 2018, published 2024).
“Also recorded” adds a separate entry of the source.

How the values were obtained:
Format in all cases: in vivo, human
[1] = Phase 2 trial: pharmacokinetics of orally administered squalamine (ENT-01); settings: estimated against IV squalamine PK of prior clinical studies
Protocol: Pharmakokinetics: PK data were collected on the 10 patients enrolled in Stage 1 and 10 patients enrolled in Stage 2 to determine the extent of systemic absorption. In Stage 1, PK data were obtained at each visit, pre-medication, at 1, 2, 4, 8 and 24 hours (Table 10). In Stage 2, PK was measured on days 1 and 6 of the randomization period pre-medication, at 1, 2, 4 and 8 hours (Table 11).
The mean Cmax, Tmax and T1/2 and AUC of the squalamine ion following squalamine (ENT-01) oral dosing for Stage 1 patients. The PK analyses are only approximate, as the lower limit of the validated concentration range was 10 ng/ml; most of the measured concentrations fell below that value. The mean Cmax, Tmax and T1/2 and AUC of the squalamine ion following squalamine (ENT-01) oral dosing for Stage 2 patients. The PK analyses are only approximate, as the lower limit of the validated concentration range was 0.5 ng/ml.

[2] = Phase 2 trial Stage 2: systolic blood pressure
[3] = test system: patients with PD and constipation; assay: Phase 2 trial Stage 2: circadian rhythm of wrist skin temperature
Protocol: (§1) Assessments were made at baseline and at the end of the fixed dose and washout periods. Circadian system status was evaluated by continuously monitoring wrist skin temperature (Thermochron iButton DS1921H; Maxim, Dallas) following published procedures (Sarabia et al. 2008).
Circadian rhythm of skin temperature was evaluable in 12 patients (i.e., those who had recordings that extended from baseline through washout). Circadian system functionality was evaluated by continuously monitoring wrist skin temperature using a temperature sensor (Thermochron iButton DS1921H; Maxim, Dallas, TX) (Sarabia et al. 2008). A nonparametric analysis was performed for each participant to characterize DST as previously described (Sarabia et al. 2008; Ortiz-Tudela et al. 2010). […]
Briefly, this analysis includes the following parameters: (i) the inter-daily stability (the constancy of 24-hour rhythmic pattern over days, IS); (ii) intra-daily variability (rhythm fragmentation, IV); (iii) average of 10-minute intervals for the 10 hours with the minimum temperature (L10); (iv) average of 10-minute intervals for the 5 hours with the maximum temperature (M5) and the relative amplitude (RA), which was determined by the difference between M5 and L10, divided by the sum of both. Finally, the Circadian Function Index (CFI) was calculated by integrating IS, IV, and RA. […]

[4] = test system: patients with PD and constipation; assay: Phase 2 trial: adverse events (MedDRA, CTCAE grading)
Protocol: Tolerability limits included diarrhea or vomiting.
(§2) In Stage 2, 34 patients were evaluated.

[5] = test system: patients with PD and constipation; assay: Phase 2 trial Stage 2: bowel function under daily oral dosing (stool diary, PAC-QOL, PAC-SYM)
Protocol: Following successful screening, all subjects underwent a 14-day run-in period where the degree of constipation was assessed through a validated daily log (Zinsmeister et al. 2013) establishing baseline CSBMs/week. Subjects with an average of <3 CSBMs/week proceeded to dosing.
as §2
The primary efficacy outcome variable was whether or not a subject was a “success” or “failure”. This is an endpoint based on subject diary entries for the “fixed dose” period prior to the endpoint assessment defined as average complete stool frequency increase by 1 or more over baseline, or 3 or more complete spontaneous stools/week. The subject was deemed a “success” if s/he met one or more of the criteria listed above, otherwise the subject was deemed a “failure”. The primary analysis was based on all subjects with a baseline assessment and an assessment at the end of the “fixed-dose” period and was a comparison of the proportion of successes with 0.10 (the null hypothesis corresponding to no treatment effect).

[6] = test system: patients with PD and constipation; assay: Phase 2 trial Stage 2: CNS symptoms (UPDRS, MMSE, PDHQ, BDI-II, sleep diary)
Text: Exploratory end-points, in addition to constipation, included for example, (i) depression assessed using the Beck Depression Inventory (BDI-II) (Steer et al. 2000) and Unified Parkinson's Disease Rating Scale (UPDRS); (ii) cognition assessed using the Mini Mental State Examination (MMSE) (Palsteia et al. 2018), Unified Parkinson's Disease Rating Scale (UPDRS), and Trail Making Test (TMT); (iii) sleep and REM-behavior disorder (RBD) using a daily sleep diary, I-Button Temperature Assessment, a REM sleep behavior disorder (RBD) questionnaire (RBDQ) (Stiasny-Kolster et al. 2007), and the UPDRS; (iv) hallucinations assessed using the PD hallucinations questionnaire (PDHQ) (Papapetropoulos et al. 2008), the UPDRS, and direct questioning; (v) fatigue using the Parkinson's Disease Fatigue Scale (PFS-16) and the UPDRS; (vi) motor functions using the UPDRS; and (vii) non-motor functions using the UPDRS.
as §1
CNS Symptoms in Stage 2: An exploratory analysis was done with respect to the sleep data, the body temperature data, mood, fatigue, hallucinations, cognition and other motor and non-motor symptoms of PD. Continuous measurements within a subject were compared with a paired t-test and continuous measurements between subject groups were compared with a two-group t-test. Categorical data were compared with a chi-squared test or a Fisher's exact test if the expected cell counts are too small for a chi-squared test.

CC(C)[C@@H](CC[C@@H](C)[C@H]1CC[C@H]2[C@@H]3[C@H](O)C[C@H]4C[C@@H](NCCCNCCCCN)CC[C@]4(C)[C@H]3CC[C@]12C)OS(=O)(=O)O (single isomer, unassigned) [squalamine (ENT-01)]
oral bio-availability [1]: less than 0.3%
change of blood pressure at post medication measurement ([2]; Stage 2 subjects with high or low blood pressure): subjects with high blood pressure demonstrated lower blood pressure at post medication measurement, while subjects with low blood pressure demonstrated higher blood pressure
BP at V4 + 2 hrs post dose ([2]; individual subjects): 111 mmHg
markers of healthy circadian function (IS, RA, CFI, IV) ([3]; fixed dose versus baseline, 12 evaluable patients): improved all markers of healthy circadian function; also recorded: significant positive impact on the circadian rhythm of skin temperature
circadian parameters during wash-out (IS, CFI) ([3]; wash-out versus baseline): improvement persisted for several of these circadian parameters
Nausea, Mild ([4]; Stage 1 (10 dosed)): 4(40) n, %
Diarrhea, adverse events by dose ([4]; Stage 1, 25 mg): 1
Nausea, adverse events by dose ([4]; Stage 1, 25 mg): 0
Vomiting, adverse events by dose ([4]; Stage 1, 25 mg): 0
Diarrhea, adverse events by dose ([4]; Stage 1, 50 mg): 1
Nausea, adverse events by dose ([4]; Stage 1, 50 mg): 0
Vomiting, adverse events by dose ([4]; Stage 1, 50 mg): 0
Diarrhea, adverse events by dose ([4]; Stage 1, 75 mg): 1
Nausea, adverse events by dose ([4]; Stage 1, 75 mg): 0
Vomiting, adverse events by dose ([4]; Stage 1, 75 mg): 0
Diarrhea, adverse events by dose ([4]; Stage 1, 100 mg): 0
Nausea, adverse events by dose ([4]; Stage 1, 100 mg): 1
Vomiting, adverse events by dose ([4]; Stage 1, 100 mg): 1
Diarrhea, adverse events by dose ([4]; Stage 1, 125 mg): 1
Nausea, adverse events by dose ([4]; Stage 1, 125 mg): 2
Vomiting, adverse events by dose ([4]; Stage 1, 125 mg): 1
Diarrhea, adverse events by dose ([4]; Stage 1, 150 mg): 1
Nausea, adverse events by dose ([4]; Stage 1, 150 mg): 0
Vomiting, adverse events by dose ([4]; Stage 1, 150 mg): 0
Diarrhea, adverse events by dose ([4]; Stage 1, 175 mg): 1
Nausea, adverse events by dose ([4]; Stage 1, 175 mg): 1
Vomiting, adverse events by dose ([4]; Stage 1, 175 mg): 0
Diarrhea, adverse events by dose ([4]; Stage 1, 200 mg): 0
Nausea, adverse events by dose ([4]; Stage 1, 200 mg): 2
Vomiting, adverse events by dose ([4]; Stage 1, 200 mg): 0
Difficulty falling asleep, Mild ([4]; Stage 2 (34 dosed)): 1(3) n, %
Eye infection, Mild ([4]; Stage 2 (34 dosed)): 1(3) n, %
Flatulence, Mild ([4]; Stage 2 (34 dosed)): 1(3) n, %
Urinary retention, Mild ([4]; Stage 2 (34 dosed)): 1(3) n, %
Urinary tract infection, Mild ([4]; Stage 2 (34 dosed)): 1(3) n, %
Worsening hemorrhoid, Mild ([4]; Stage 2 (34 dosed)): 1(3) n, %
Diarrhea, adverse events by dose ([4]; Stage 2, 75 mg): 7
Dizziness (lightheadedness included), adverse events by dose ([4]; Stage 2, 75 mg): 8
Nausea, adverse events by dose ([4]; Stage 2, 75 mg): 3
Diarrhea, adverse events by dose ([4]; Stage 2, 100 mg): 10
Dizziness (lightheadedness included), adverse events by dose ([4]; Stage 2, 100 mg): 7
Nausea, adverse events by dose ([4]; Stage 2, 100 mg): 12
Diarrhea, adverse events by dose ([4]; Stage 2, 125 mg): 3
Dizziness (lightheadedness included), adverse events by dose ([4]; Stage 2, 125 mg): 8
Nausea, adverse events by dose ([4]; Stage 2, 125 mg): 4
Diarrhea, adverse events by dose ([4]; Stage 2, 150 mg): 2
Dizziness (lightheadedness included), adverse events by dose ([4]; Stage 2, 150 mg): 2
Nausea, adverse events by dose ([4]; Stage 2, 150 mg): 11
Diarrhea, adverse events by dose ([4]; Stage 2, 175 mg): 1
Dizziness (lightheadedness included), adverse events by dose ([4]; Stage 2, 175 mg): 0
Nausea, adverse events by dose ([4]; Stage 2, 175 mg): 12
Diarrhea, adverse events by dose ([4]; Stage 2, 200 mg): 3
Nausea, adverse events by dose ([4]; Stage 2, 200 mg): 6
Diarrhea, adverse events by dose ([4]; Stage 2, 225 mg): 3
Nausea, adverse events by dose ([4]; Stage 2, 225 mg): 1
Diarrhea, adverse events by dose ([4]; Stage 2, 250 mg): 2
response rate (CSBM within 24 h of dosing on at least 2 of 3 days) ([5]; Stage 2, daily oral dosing, 75 mg): 26%
CSBM, weekly average (mean, SD) ([5]; Stage 2, fixed dose, n=34, baseline 1.2 (0.90)): 3.8 (2.4) /week
CSBM frequency ([5]; patients later randomized to placebo (n=9), fixed dose period on drug, baseline 1.6): 3.3 CSBM/week
CSBM frequency ([5]; randomized cohort, treatment arm (n=6), fixed dose period, baseline 0.8): 3.2 CSBM/week
CSBM frequency ([5]; randomized cohort, treatment arm (n=6), randomized period 4-6 days, baseline 0.8): 2.4 CSBM/week
CSBM frequency ([5]; randomized cohort, treatment arm (n=6), washout, baseline 0.8): 0.9 CSBM/week
time hallucinations did not return after discontinuation ([6]; 1 patient): 4 weeks
time hallucinations did not return after discontinuation ([6]; another patient): 2 weeks
patients in whom hallucinations and delusions improved or disappeared during treatment ([6]; of those with hallucinations (5) or delusions (1) at baseline): 5 of 6
